According to US6685617B1, “Inhibitors of α4β1 mediated cell adhesion” (Pharmacia & Upjohn Company, priority 1998, dated 2004):
Where a name gives a salt, the structure may show the parent alone.

Tests used:
[1] = biological target: T1, α4β1 integrin (Jurkat cell adhesion to immobilized CS-1 derived peptide CLHPGEILDVPST) (Homo sapiens, UniProt P05556+P13612); assay: Jurkat-CS-1 assay; format: cell-based; settings: Jurkat cells on CS-1 peptide coated plates; read-out: JK/CS-1 (Jurkat CS-1 Assay IC50 value range)
T1 construct: 100 μl of Jurkat cells (2.5×10^6 cells/ml) in DMEM plus BSA; host or cells: Jurkat T-cell line
T1 sequence (P13612 34-1032): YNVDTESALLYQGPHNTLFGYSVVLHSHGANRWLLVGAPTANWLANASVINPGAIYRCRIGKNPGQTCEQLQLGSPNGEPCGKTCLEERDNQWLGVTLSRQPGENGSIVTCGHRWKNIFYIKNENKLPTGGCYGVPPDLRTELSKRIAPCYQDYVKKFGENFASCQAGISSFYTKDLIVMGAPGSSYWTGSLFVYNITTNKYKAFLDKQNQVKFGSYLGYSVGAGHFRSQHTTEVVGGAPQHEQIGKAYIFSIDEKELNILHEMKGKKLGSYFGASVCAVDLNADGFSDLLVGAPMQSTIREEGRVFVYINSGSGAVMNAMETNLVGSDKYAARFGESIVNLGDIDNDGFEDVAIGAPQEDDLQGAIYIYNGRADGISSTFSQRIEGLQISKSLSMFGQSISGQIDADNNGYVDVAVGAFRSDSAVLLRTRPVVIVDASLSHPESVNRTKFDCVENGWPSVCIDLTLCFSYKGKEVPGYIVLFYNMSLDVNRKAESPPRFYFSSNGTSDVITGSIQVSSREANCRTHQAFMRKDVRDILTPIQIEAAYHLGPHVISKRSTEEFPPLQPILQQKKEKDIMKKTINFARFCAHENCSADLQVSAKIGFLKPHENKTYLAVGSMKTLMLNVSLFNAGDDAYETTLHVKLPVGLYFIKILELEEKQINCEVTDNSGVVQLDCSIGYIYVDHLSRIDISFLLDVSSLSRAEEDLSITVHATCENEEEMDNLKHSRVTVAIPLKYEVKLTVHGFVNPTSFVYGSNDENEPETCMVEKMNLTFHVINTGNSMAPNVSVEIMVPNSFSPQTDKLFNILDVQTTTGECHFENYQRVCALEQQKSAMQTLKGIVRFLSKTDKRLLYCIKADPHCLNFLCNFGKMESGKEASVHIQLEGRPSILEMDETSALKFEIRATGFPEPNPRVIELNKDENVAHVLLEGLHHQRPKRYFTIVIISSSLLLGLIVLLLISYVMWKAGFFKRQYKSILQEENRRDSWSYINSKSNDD
T1 sequence (P05556 21-798): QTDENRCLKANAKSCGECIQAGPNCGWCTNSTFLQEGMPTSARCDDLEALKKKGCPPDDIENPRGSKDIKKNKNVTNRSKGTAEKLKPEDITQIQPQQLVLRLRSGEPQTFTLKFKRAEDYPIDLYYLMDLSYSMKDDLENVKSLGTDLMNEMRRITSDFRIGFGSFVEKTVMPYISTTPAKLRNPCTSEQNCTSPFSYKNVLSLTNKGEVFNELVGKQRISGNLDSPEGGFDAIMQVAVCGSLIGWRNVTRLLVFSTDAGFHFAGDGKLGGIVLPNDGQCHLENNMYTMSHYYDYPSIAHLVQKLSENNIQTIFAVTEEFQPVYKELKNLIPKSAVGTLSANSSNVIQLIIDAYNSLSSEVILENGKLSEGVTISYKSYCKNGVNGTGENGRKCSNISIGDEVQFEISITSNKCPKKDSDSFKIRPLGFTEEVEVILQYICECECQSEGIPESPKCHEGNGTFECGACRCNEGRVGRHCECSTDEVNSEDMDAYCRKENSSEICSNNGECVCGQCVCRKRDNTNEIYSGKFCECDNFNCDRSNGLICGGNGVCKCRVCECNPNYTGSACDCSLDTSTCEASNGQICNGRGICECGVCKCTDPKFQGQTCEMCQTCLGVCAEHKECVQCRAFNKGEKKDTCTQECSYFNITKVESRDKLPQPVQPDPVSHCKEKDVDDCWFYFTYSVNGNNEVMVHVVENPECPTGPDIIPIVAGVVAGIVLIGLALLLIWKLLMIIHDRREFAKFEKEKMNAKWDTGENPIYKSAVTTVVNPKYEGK
Outline: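 CS-1 peptide was SPDP-crosslinked onto HSA-coated plates and blocked with BSA. Jurkat cells (2.5×10^6 cells/ml) in DMEM/BSA were mixed with compound, generally at 100, 20, 5 and 1.25 μM, and allowed to adhere for 1 hr at 37° C. Bound cells were fixed, stained with toluidine blue and quantified by OD590.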

[2] = biological target: T2, α4β1 integrin (Jurkat T-cell adhesion to IL-1 stimulated endothelial cell monolayers) (Homo sapiens, UniProt P05556+P13612); assay: Jurkat-endothelial cell adhesion assay (Jurkat EC); format: cell-based; settings: Jurkat cells on IL-1 stimulated human umbilical vein endothelial cells; read-out: JK/EC (Jurkat EC Assay IC50 value range)
T2 construct: a T-cell line, Jurkat, known to express the α4β1 integrin; host or cells: Jurkat T-cell line
T2 sequence (P13612 34-1032): as the sequence (P13612 34-1032) above
T2 sequence (P05556 21-798): as the sequence (P05556 21-798) above
Outline: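 Adhesion was expressed as percent of compound-free fluorescence after 20 min at 37° C (following 5 min settling on ice) of BCECF-loaded Jurkat T cells on washed HUVEC monolayers. The endothelium, passage 6 or lower, had received 0.1 ng/ml recombinant IL-1 for 4 hr at 37° C; compound was premixed with the T cells, typically at 100, 20, 5 and 1.25 μM.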

| IC50 [1] | IC50 [2] | Structure (SMILES) |
| --- | --- | --- |
| ≤ 50 nM | ≤ 250 nM | CS(=O)(=O)N1CSC[C@@H]1C(=O)N[C@@H](Cc1ccc(NC(=O)c2c(Cl)cccc2Cl)cc1)C(=O)O [Example 3, 4-[(2,6-Dichlorobenzoyl)amino]-N-[[(4S)-3-(methylsulfonyl)-4-thiazolidinyl]carbonyl]-L-phenylalanine] |
| 50 to 750 nM | ≥ 1000 nM | CCN(CC)C(=O)N1CSC[C@@H]1C(=O)N[C@@H](Cc1ccc(NC(=O)c2c(Cl)cccc2Cl)cc1)C(=O)OC [Example 7, 4-[(2,6-Dichlorobenzoyl)amino]-N-[[(4S)-3-[(diethylamino)carbonyl]-4-thiazolidinyl]carbonyl]-L-phenylalanine Methyl Ester] |
| ≤ 50 nM | ≤ 250 nM | CCS(=O)(=O)N1CSC[C@@H]1C(=O)N[C@@H](Cc1ccc(NC(=O)c2c(Cl)cccc2Cl)cc1)C(=O)O [Example 43] |
| 50 to 750 nM | ≤ 250 nM | CC(C)(C)NC(=O)N1CSC[C@@H]1C(=O)N[C@@H](Cc1ccc(NC(=O)c2c(Cl)cccc2Cl)cc1)C(=O)O [Example 52, 4-[(2,6-Dichlorobenzoyl)amino]-N-[[(4S)-3-[[(1,1-dimethylethyl)amino]carbonyl]-4-thiazolidinyl]carbonyl]-L-phenylalanine] |
| ≤ 50 nM | ≤ 250 nM | CCN(CC)C(=O)N1CSC[C@@H]1C(=O)N[C@@H](Cc1ccc(NC(=O)c2c(Cl)cccc2Cl)cc1)C(=O)O [Example 53, 4-[(2,6-Dichlorobenzoyl)amino]-N-[[(4S)-3-[(diethylamino)carbonyl]-4-thiazolidinyl]carbonyl]-L-phenylalanine] |
| ≤ 50 nM | ≤ 250 nM | CN(CCc1ccccn1)C(=O)N1CSC[C@@H]1C(=O)N[C@@H](Cc1ccc(NC(=O)c2c(Cl)cccc2Cl)cc1)C(=O)O [Example 55, 4-[(2,6-Dichlorobenzoyl)amino]-N-[[(4S)-3-[[methyl[2-(2-pyridinyl)ethyl]amino]carbonyl]-4-thiazolidinyl]carbonyl]-L-phenylalanine] |
| ≤ 50 nM | ≤ 250 nM | O=C(Nc1ccc(C[C@H](NC(=O)[C@H]2CSCN2C(=O)N(CCO)CCO)C(=O)O)cc1)c1c(Cl)cccc1Cl [Example 58, N-[[(4S)-3-[[bis(2-Hydroxyethyl)amino]carbonyl]thiazoldinyl]carbonyl]-4-[(2,6-dichlorobenzoyl)amino]-L-phenylalanine] |
| ≤ 50 nM | ≤ 250 nM | CC(=O)N1CSC[C@@H]1C(=O)N[C@@H](Cc1ccc(NC(=O)c2c(Cl)cccc2Cl)cc1)C(=O)O [Example 62, N-[[(4S)-3-Acetyl-4-thiazolidinyl]carbonyl]-4-[(2,6-dichlorobenzoyl)amino]-L-phenylalanine] |
| ≤ 50 nM | 250 to 1000 nM | CC(=O)N1CSC[C@H]1C(=O)N[C@@H](Cc1ccc(NC(=O)c2c(Cl)cccc2Cl)cc1)C(=O)O [Example 70, N-[[(4R)-3-Acetyl-4-thiazolidinyl]carbonyl]-4[(2,6-dichlorobenzoyl)amino]-L-phenylalanine] |

Second part, the compound before the results:

| Structure (SMILES) | IC50 [1] | IC50 [2] |
| --- | --- | --- |
| COC(=O)[C@H](Cc1ccc(NC(=O)c2c(Cl)cccc2Cl)cc1)NC(=O)[C@H]1CSCN1S(C)(=O)=O [Example 2, 4-[(2,6-Dichlorobenzoyl)amino]-N-[[(4S)-3-(methylsulfonyl)-4-thiazolidinyl]carbonyl]-L-phenylalanine Methyl Ester] | 50 to 750 nM | ≤ 250 nM |
| COC(=O)[C@H](Cc1ccc(NC(=O)c2c(Cl)cccc2Cl)cc1)NC(=O)[C@H]1CSCN1C(=O)NC(C)(C)C [Example 6, 4-[(2,6-Dichlorobenzoyl)amino]-N-[[(4S)-3-[((1,1-dimethylethyl)amino)carbonyl]-4-thiazolidinyl]carbonyl]-L-phenylalanine Methyl Ester] | ≥ 750 nM | ≥ 1000 nM |
| O=C(Nc1ccc(C[C@H](NC(=O)[C@H]2CSCN2)C(=O)O)cc1)c1c(Cl)cccc1Cl [Example 11, 4-[(2,6-Dichlorobenzoyl)amino]-N-[[(4S)-4-thiazolidinyl]carbonyl]-L-phenylalanine Monohydrochloride Salt] | 50 to 750 nM | ≥ 1000 nM |
| CCS(=O)(=O)N1CSC[C@@H]1C(=O)N[C@@H](Cc1ccc(NC(=O)c2c(Cl)cccc2Cl)cc1)C(=O)OC [Example 42] | 50 to 750 nM | 250 to 1000 nM |
| COC(=O)[C@H](Cc1ccc(NC(=O)c2c(Cl)cccc2Cl)cc1)NC(=O)[C@H]1CSCN1S(=O)(=O)c1ccc(C(F)(F)F)cn1 [Example 44, 4-[(2,6-Dichlorobenzoyl)amino]-N-[[(4S)-3-[[5-(trifluoromethyl)-2-pyridinyl]sulfonyl]-4-thiazolidinyl]carbonyl]-L-phenylalanine Methyl Ester] | ≥ 750 nM | ≥ 1000 nM |
| O=C(Nc1ccc(C[C@H](NC(=O)[C@H]2CSCN2S(=O)(=O)c2ccc(C(F)(F)F)cn2)C(=O)O)cc1)c1c(Cl)cccc1Cl [Example 45] | 50 to 750 nM | 250 to 1000 nM |
| COC(=O)[C@H](Cc1ccc(NC(=O)c2c(Cl)cccc2Cl)cc1)NC(=O)[C@H]1CSCN1S(=O)(=O)c1ccccc1 [Example 46, 4-[(2,6-Dichlorobenzoyl)amino]-N-[[(4S)-3-(phenylsulfonyl)-4-thiazolidinyl]carbonyl]-L-phenylalanine Methyl Ester] | ≥ 750 nM | ≥ 1000 nM |
| O=C(Nc1ccc(C[C@H](NC(=O)[C@H]2CSCN2S(=O)(=O)c2ccccc2)C(=O)O)cc1)c1c(Cl)cccc1Cl [Example 47] | ≤ 50 nM | ≤ 250 nM |
| COC(=O)[C@H](Cc1ccc(NC(=O)c2c(Cl)cccc2Cl)cc1)NC(=O)[C@H]1CSCN1S(=O)(=O)c1cccc2c(N(C)C)cccc12 [Example 48, 4-[(2,6-Dichlorobenzoyl)amino]-N-[[(4S)-3-[[5-(dimethylamino)-1-naphthalenyl]sulfonyl]-4-thiazolidinyl]carbonyl]-L-phenylalanine Methyl Ester] | ≥ 750 nM | ≥ 1000 nM |
| CN(C)c1cccc2c(S(=O)(=O)N3CSC[C@@H]3C(=O)N[C@@H](Cc3ccc(NC(=O)c4c(Cl)cccc4Cl)cc3)C(=O)O)cccc12 [Example 49, 4-[(2,6-Dichlorobenzoyl)amino]-N-[[(4S)-3-[[5-(dimethylamino)-1-naphthalenyl]sulfonyl]-4-thiazolidinyl]carbonyl]-L-phenylalanine] | ≥ 750 nM | ≥ 1000 nM |
| COC(=O)[C@H](Cc1ccc(OCc2c(Cl)cccc2Cl)cc1)NC(=O)[C@H]1CSCN1S(C)(=O)=O [Example 50, O-[(2,6-Dichlorophenyl)methyl]-N-[[(4S)-3-(methylsulfonyl)-4-thiazolidinyl]carbonyl]-L-tyrosine Methyl Ester] | 50 to 750 nM | ≥ 1000 nM |
| CS(=O)(=O)N1CSC[C@@H]1C(=O)N[C@@H](Cc1ccc(OCc2c(Cl)cccc2Cl)cc1)C(=O)O [Example 51, O-[(2,6-Dichlorophenyl)methyl]-N-[[(4S)-3-(methylsulfonyl)-4-thiazolidinyl]carbonyl]-L-tyrosine] | 50 to 750 nM | 250 to 1000 nM |
| COC(=O)[C@H](Cc1ccc(NC(=O)c2c(Cl)cccc2Cl)cc1)NC(=O)[C@H]1CSCN1C(C)=O [Example 61, N-[[(4S)-3-Acetyl-4-thiazolidinyl]carbonyl]-4-[(2,6-dichlorobenzoyl)amino]-L-phenylalanine Methyl Ester] | 50 to 750 nM | 250 to 1000 nM |
| COC(=O)[C@H](Cc1ccc(OCc2c(Cl)cccc2Cl)cc1)NC(=O)[C@H]1CSCN1C(C)=O [Example 65, N-[[(4S)-3-Acetyl-4-thiazolidinyl]carbonyl]-O-[(2,6-dichlorophenyl)methyl]-L-tyrosine Methyl Ester] | 50 to 750 nM | ≥ 1000 nM |
| CC(=O)N1CSC[C@@H]1C(=O)N[C@@H](Cc1ccc(OCc2c(Cl)cccc2Cl)cc1)C(=O)O [Example 66, N-[[(4S)-3-Acetyl-4-thiazolidinyl]carbonyl]-O-[(2,6-dichlorophenyl)methyl]-L-tyrosine] | 50 to 750 nM | ≤ 250 nM |
| COC(=O)[C@H](Cc1ccc(NC(=O)c2c(Cl)cccc2Cl)cc1)NC(=O)[C@@H]1CSCN1C(C)=O [Example 69, N-[[(4R)-3-Acetyl-4-thiazolidinyl]carbonyl]-4-[(2,6-dichlorobenzoyl)amino]-L-phenylalanine Methyl Ester] | ≥ 750 nM | ≥ 1000 nM |
| O=C(Nc1ccc(C[C@H](NC(=O)[C@@H]2CSCN2)C(=O)O)cc1)c1c(Cl)cccc1Cl [Example 71, 4-[(2,6-Dichlorobenzoyl)amino]-N-[[(4R)-4-thiazolidinyl]carbonyl]-L-phenylalanine Monohydrochloride Salt] | ≥ 750 nM | ≥ 1000 nM |
| CC1(C)N[C@H](C(=O)N[C@@H](Cc2ccc(NC(=O)c3c(Cl)cccc3Cl)cc2)C(=O)O)CS1 [Example 74, 4-[(2,6-Dichlorobenzoyl)amino]-N-[[(4R)-2,2-dimethyl-4-thiazolidinyl]carbonyl]-L-phenylalanine] | 50 to 750 nM | 250 to 1000 nM |
| COC(=O)[C@H](Cc1ccc(NC(=O)c2c(Cl)cccc2Cl)cc1)NC(=O)[C@H]1CSC(C)(C)N1C(C)=O [Example 83, N-[[(4S)-3-Acetyl-2,2-dimethyl-4-thiazolidinyl]carbonyl]-4-[(2,6-dichlorobenzoyl)amino]-L-phenylalanine Methyl Ester] | 50 to 750 nM | ≥ 1000 nM |
